Values quoted from earlier work, collected in PMC8075256, “Transport of Alzheimer’s associated amyloid-β catalyzed by P-glycoprotein” (PLOS ONE, 2021).

Tested on: P-gp and BCRP
Conditions: ref 65 Kannan et al.
Source text: To further test if P-gp can transport Aβ42, we performed fluorescence accumulation assays in a human cellular system. […] Previous work by our group has shown that the chemotherapy-sensitive, non-P-gp-overexpressing DU145 cells do express detecta ...

COc1cc2c(cc1OC)CN(CCc1ccc(NC(=O)c3cc(OC)c(OC)cc3NC(=O)c3cnc4ccccc4c3)cc1)CC2 [Tariquidar]
concentrations at which TQR acts as an inhibitor of both P-gp and BCRP: greater than 100 nM
